Data taken from ChEMBL document CHEMBL1125015, “Synthesis and antiarrhythmic activity of 5,11-dihydro[1]benzoxepino[3,4-b]pyridines” (1990).

Key:
Canis familiaris [1] = experiment: No. of cases tested was measured on ouabain induced ventricular arrhythmia at 5 mg/kg, iv in dogs; 0/2; format: functional, Canis lupus familiaris, Cardiac ventricle
Mus musculus [2] = organism: Mus musculus; experiment: Inhibition of chloroform induced ventricular arrhythmia; format: functional, Cardiac ventricle
[3] = target: T1, Muscarinic acetylcholine receptor (Rattus norvegicus) (UniProt P08482+P08483+P08485+P08911+P10980); experiment: Inhibitory effect on muscarinic acetylcholine receptor binding affinity at a concentration of (10e -5)M; format: protein assay
[4] = target: T1, Muscarinic acetylcholine receptor (Rattus norvegicus); experiment: Inhibitory effect on muscarinic acetylcholine receptor binding affinity at a concentration of (10e -6)M; format: protein assay
Canis familiaris [5] = experiment: No. of cases tested was measured on ouabain induced ventricular arrhythmia at 5 mg/kg, iv in dogs; 2/3; format: functional, Canis lupus familiaris, Cardiac ventricle
Canis familiaris [6] = experiment: No. of cases tested was measured on ouabain induced ventricular arrhythmia at 5 mg/kg, iv in dogs; 6/6; format: functional, Canis lupus familiaris, Cardiac ventricle
Mus musculus [7] = experiment: Dose (po) required to double the prodrug pupil size; format: functional
[8] = Ratio of ED100 (Dose po required to double the prodrug pupil size in mice) to that of ED50 (50% inhibition of chloroform induced ventricular arrhythmia in mice); format: functional
Canis familiaris [9] = experiment: Antiarrhythmic activity in ouabain-induced ventricular arrhythmia in dog at compound concentration of 10 mg/kg; format: functional, Canis lupus familiaris, Heart
Canis familiaris [10] = experiment: No. of cases tested was measured on ouabain induced ventricular arrhythmia at 5 mg/kg, iv in dogs; 1/7; format: functional, Canis lupus familiaris, Cardiac ventricle
Canis familiaris [11] = experiment: No. of cases tested was measured on ouabain induced ventricular arrhythmia at 5 mg/kg, iv in dogs; 0/3; format: functional, Canis lupus familiaris, Cardiac ventricle
Canis familiaris [12] = experiment: No. of cases tested was measured on ouabain induced ventricular arrhythmia at dose 10mg/Kg, iv; 0/3; format: functional, Canis lupus familiaris, Cardiac ventricle
Canis familiaris [13] = experiment: No. of cases tested was measured on ouabain induced ventricular arrhythmia at dose (10mg/Kg, iv); 0/2; format: functional, Canis lupus familiaris, Cardiac ventricle
Canis familiaris [14] = experiment: No. of cases tested was measured on ouabain induced ventricular arrhythmia at 5 mg/kg, iv in dogs; 0/1; format: functional, Canis lupus familiaris, Cardiac ventricle
Canis familiaris [15] = experiment: No. of cases tested was measured on ouabain induced ventricular arrhythmia at 5 mg/kg, iv in dogs; 1/3; format: functional, Canis lupus familiaris, Cardiac ventricle
Canis familiaris [16] = experiment: No. of cases tested was measured on ouabain induced ventricular arrhythmia at 5 mg/kg, iv in dogs; 0/4; format: functional, Canis lupus familiaris, Cardiac ventricle
Canis familiaris [17] = experiment: No. of cases tested was measured on ouabain induced ventricular arrhythmia at 5 mg/kg, iv in dogs; 3/3; format: functional, Canis lupus familiaris, Cardiac ventricle
Canis familiaris [18] = experiment: No. of cases tested was measured on ouabain induced ventricular arrhythmia at 5 mg/kg, iv in dogs; 2/2; format: functional, Canis lupus familiaris, Cardiac ventricle
Canis familiaris [19] = experiment: No. of cases tested was measured on ouabain induced ventricular arrhythmia at 5 mg/kg, iv in dogs; 3/6; format: functional, Canis lupus familiaris, Cardiac ventricle
Mus musculus [20] = organism: Mus musculus; experiment: Compound was evaluated by measuring the 50% inhibition of chloroform induced ventricular arrhythmia in mice; format: functional; conditions: Cardiac ventricle
Canis familiaris [21] = experiment: No. of cases tested was measured on ouabain induced ventricular arrhythmia at 5 mg/kg, iv in dogs; 1/4; format: functional, Canis lupus familiaris, Cardiac ventricle
[22] = Mus musculus, Cardiac ventricle, read-out: ED50

SMILES | No. positive cases/tested (Canis familiaris [1]) | ED50 (Mus musculus [2]; [22]) [mg/kg] | inhibition [3] [%] | inhibition [4] [%] | also measured
COc1ccc2c(c1)C(NCCCN(C)C)c1cccnc1CO2 (configuration not stated) | 0 | > 100 | 5 | 1 | 
CCN(CC)CCNC1c2cc(OC)ccc2OCc2ncccc21 (configuration not stated) [listing 1 of 2 here] |  |  | 8 | -3 | 
CCN(CC)CC/C=C1\c2ccccc2OCc2ncccc21 |  | 100 | 45 | 6 | No. positive cases/tested (Canis familiaris [5]): 2
CC(C)N(CCC(C(N)=O)(c1ccccc1)c1ccccn1)C(C)C (configuration not stated) [DISOPYRAMIDE] |  | 35 | 7 | -1 | No. positive cases/tested (Canis familiaris [6]): 6; ED100 (Mus musculus [7]): 20 mg/kg; Ratio [8]: 0.6
CCN(CC)CCNC1c2cc(OC)ccc2OCc2ncccc21 (single isomer, unassigned; (-)) |  |  |  |  | Inhibition (Canis familiaris [9]): 94%
CCN(CC)CCNC1c2cc(O)ccc2OCc2ncccc21 (configuration not stated) |  | > 100 | -1 | 0 | No. positive cases/tested (Canis familiaris [10]): 1
CCN(CC)CCNC1c2cc(OC)ccc2OCc2ncccc21 (racemic) |  |  |  |  | Inhibition (Canis familiaris [9]): 76%
CCN(CC)CCNC1c2cc(OC(C)C)ccc2OCc2ncccc21 (configuration not stated) | 0 | 53 | 12 | 3 | 
COc1ccc2c(c1)C(NCCN1CCCC1)c1cccnc1CO2 (configuration not stated) |  | > 100 | 12 | 3 | No. positive cases/tested (Canis familiaris [11]): 0
CCN(CC)CCNC1c2ccccc2OCc2ncccc21 (configuration not stated) |  | 93 |  |  | No. positive cases/tested (Canis familiaris [12]): 0
CCN(CC)CCNC1c2cc(N(C)C)ccc2OCc2ncccc21 (configuration not stated) |  | > 100 | 19 | 4 | No. positive cases/tested (Canis familiaris [13]): 0
Cc1cccc(C)c1OCC(C)N (configuration not stated) [MEXILETINE] |  | 71 | -3 | -1 | Ratio [8]: 1.7
CCN1CCCC1CNC1c2cc(OC)ccc2OCc2ncccc21 (stereo in doubt; 26) [listing 1 of 2 here] |  |  | 23 | 2 | 
COc1ccc2c(c1)C(NCCN1[C@@H](C)CC[C@@H]1C)c1cccnc1CO2 (some centres not stated) |  | 100 | 6 | -2 | No. positive cases/tested (Canis familiaris [14]): 0
CCN(CC)CCSC1c2cc(OC)ccc2OCc2ncccc21 (configuration not stated) |  | 31 | 20 | 1 | No. positive cases/tested (Canis familiaris [11]): 0
COc1ccc2c(c1)C(NCCN(C(C)C)C(C)C)c1cccnc1CO2 (configuration not stated) | 0 | > 100 | 17 | 4 | 
CCN(CC)CC(=O)NC1c2cc(OC)ccc2OCc2ncccc21 (configuration not stated) | 0 | > 100 | 1 | -3 | 
CCN1CCCC1CNC1c2cc(OC)ccc2OCc2ncccc21 (stereo in doubt; 27) [listing 1 of 2 here] |  | 58 |  |  | No. positive cases/tested (Canis familiaris [15]): 1
COc1ccc2c(c1)C(NCCN1[C@H](C)CC[C@@H]1C)c1cccnc1CO2 (some centres not stated) |  | > 100 | 15 | 3 | No. positive cases/tested (Canis familiaris [15]): 1
COc1ccc2c(c1)C(N1CCN(C)CC1)c1cccnc1CO2 (configuration not stated) | 0 | 81 | 11 | 0 | 
CCN(CC)CC/C=C1\c2cc(OC)ccc2OCc2ncccc21 |  | > 100 | 27 | 3 | No. positive cases/tested (Canis familiaris [16]): 0

SMILES | No. positive cases/tested (Canis familiaris [1]) | ED50 (Mus musculus [2]; [22]) [mg/kg] | inhibition [3] [%] | inhibition [4] [%] | also measured
COc1ccc2c(c1)C(NCCCNC1CCCCC1)c1cccnc1CO2 (configuration not stated) |  | > 100 | -1 | -1 | No. positive cases/tested (Canis familiaris [17]): 3
COc1ccc2c(c1)C(NCCN1CCOCC1)c1cccnc1CO2 (configuration not stated) | 0 | > 100 | 0 | 0 | 
CCN1CCCC1CNC1c2cc(OC)ccc2OCc2ncccc21 (stereo in doubt; 26) [listing 2 of 2 here] | 0 |  |  |  | ED50 (Mus musculus [2]): 61 mg/kg
CCN(CC)CCNC1c2cc(OC)c(OC)cc2OCc2ncccc21 (configuration not stated) | 0 | > 100 | 2 | 7 | 
CCN(CC)CC/C=C1/c2ccccc2OCc2ncccc21 |  | > 17 | 80 | 28 | No. positive cases/tested (Canis familiaris [18]): 2
CCN(CC)CCCNC1c2cc(OC)ccc2OCc2ncccc21 (configuration not stated) |  | 50 | 24 | 4 | No. positive cases/tested (Canis familiaris [15]): 1
COc1ccc2c(c1)C(NN1CCN(C)CC1)c1cccnc1CO2 (configuration not stated) | 0 | > 100 | 7 | 2 | 
CCN(CC)CCNC1c2ccc(OC)cc2OCc2ncccc21 (configuration not stated) | 0 | > 100 | 7 | 14 | 
CCN(CC)CCNC1c2cc(C)ccc2OCc2ncccc21 (configuration not stated) |  | > 100 |  |  | 
CCN(CC)CCNC1c2cc(F)ccc2OCc2ncccc21 (configuration not stated) | 0 | > 100 |  |  | 
COc1ccc2c(c1)C(NCCN)c1cccnc1CO2 (configuration not stated) | 0 | > 100 | 5 | -1 | 
CCN(CC)CCNC1c2cccnc2COc2c(OC)cccc21 (configuration not stated) | 0 | > 100 | 37 | 12 | 
COc1ccc2c(c1)C(NCCN(C)C)c1cccnc1CO2 (configuration not stated) | 0 | > 100 | 15 | 3 | 
CCN1CCCC1CNC1c2cc(OC)ccc2OCc2ncccc21 (stereo in doubt; 27) [listing 2 of 2 here] |  |  | 25 | 3 | 
CCN(CC)CCNC1c2cc(OC)ccc2OCc2ncccc21 (single isomer, unassigned; (+)) |  |  |  |  | Inhibition (Canis familiaris [9]): 51%
CCN(CC)CCNC1c2cc(OC)ccc2OCc2ncccc21 (configuration not stated) [listing 2 of 2 here] |  |  |  |  | No. positive cases/tested (Canis familiaris [19]): 3; ED100 (Mus musculus [7]): 194 mg/kg; ED50 (Mus musculus [20]): 62 mg/kg; Ratio [8]: 4
CCNCCNC1c2cc(OC)ccc2OCc2ncccc21 (configuration not stated) |  | > 100 | 1 | 2 | No. positive cases/tested (Canis familiaris [11]): 0
CCN(CC)CCNC1c2cc(Cl)ccc2OCc2ncccc21 (configuration not stated) |  | > 100 |  |  | 
COc1ccc2c(c1)C(NCCN1C(C)CCCC1C)c1cccnc1CO2 (configuration not stated) |  | > 100 | 11 | 2 | No. positive cases/tested (Canis familiaris [15]): 1
CCN(CC)CC/C=C1/c2cc(OC)ccc2OCc2ncccc21 |  | 14 | 26 | 5 | No. positive cases/tested (Canis familiaris [21]): 1
